Reference: US6638933B2, “Bicyclic imidazo-3-yl-amine derivatives” (Gruenenthal GmbH, priority 1999, dated 2003)

Tested on: phenylquinone-induced writhing in mice
Experiment: Analgesia test in the writhing test in mice (phenylquinone-induced writhing)
Assay type: in vivo
Conditions: male NMRI mice, phenylquinone i.p. ten minutes after substance
Description: Analgesia Test in the Writhing Test in Mice
The analgesic activity was investigated in the phenylquinone-induced writhing in mice (modified according to I. C. Hendershot, J. Forsaith, J. Pharmacol. Exp. Ther. 125, 237-240 (1959)). Male NMRI mice weighing 25-30 g were used. Groups of 10 animals per substance dose received 0.3 ml/mouse of a 0.02% aqueous solution of phenylquinone (phenylbenzoquinone, Sigma, Deisenhofen; solution prepared with the addition of 5% ethanol and storage in a water-bath at 45° C.) administered intraperitoneally ten minutes after intravenous or subcutaneous administration of the test substances. The animals were placed individually in observation cages. The number of pain-induced extension movements (so-called writhing reactions=straightening of the body with stretching out of the hind extremities) 5-20 minutes after administration of the phenylquinone was counted by means of a push-button counter. Animals which receive only physiological saline solution were also run as a control. The substances were tested in the standard dosage of 10 mg/kg intravenously or 21.5 mg/kg subcutaneously. The percentage inhibition (% inhibition) of the writhing reaction by a substance was calculated in accordance with the following equation: [formula]

Compound | % inhibition of the writhing reaction at 10 mg/kg intravenously (writhing counted 5-20 minutes) [%] | other results
c1coc(-c2nc3ccccn3c2NC2CCCCC2)c1 [Example 20, Cyclohexyl-(2-furan-2-yl-imidazo[1,2-a]pyridin-3-yl)-amine] | 43 | –
CC(C)(C)Nc1c(-c2ccccn2)nc2ccccn12 [Example 22, tert-Butyl-(2-pyridin-2-yl-imidazo[1,2-a]pyridin-3-yl)-amine] | 53 | –
CCOP(=O)(CNc1c(-c2ccccc2)nc2ccccn12)OCC [Example 12, [(2-Phenyl-imidazo[1,2-a]pyridin-3-ylamino)-methyl]-phosphonic acid diethyl ester] | 90 | –
Cc1nc2ccccn2c1NC1CCCCC1 [Example 24, Cyclohexyl-(2-methyl-imidazo[1,2-a]pyridin-3-yl)-amine] | 56 | –
CC(C)(C)Nc1c(C(C)(C)C)nc2ccccn12 [Example 13, tert-Butyl-(2-tert-butyl-imidazo[1,2-a]pyridin-3-yl)-amine] | – | % inhibition of the writhing reaction, intravenously, at 2.15 mg/kg (2.15 mg/kg (stated in cell) in the intravenous column): 86 at 2.15 mg/kg %
CC(C)(C)Nc1c(-c2cccnc2)nc2ccccn12 [Example 21, tert-Butyl-(2-pyridin-3-yl-imidazo[1,2-a]pyridin-3-yl)-amine] | – | % inhibition of the writhing reaction at 21.5 mg/kg subcutaneously (21.5 mg/kg subcutaneously, writhing counted 5-20 minutes): 80%
CC(C)(C)Nc1c(-c2cccs2)nc2ccccn12 [Example 23, tert-Butyl-(2-thiophen-2-yl-imidazo[1,2-a]pyridin-3-yl)-amine] | 62 | –
